From PMC11676734, “Novel Cyclic Peptide–Drug Conjugate P6-SN38 Toward Targeted Treatment of EGFR Overexpressed Non-Small Cell Lung Cancer” (Pharmaceutics, 2024)
Positions of bridges follow the written chain, without caps; N, C: chain ends. Residues, ends and D or L forms follow the SMILES beside them. *: point of attachment. X1 = CCc1c2c(nc3ccc(O)cc13)-c1cc3c(c(=O)n1C2)COC(=O)[C@@]3(CC)OC(=O)CCC(=O)*; GABA = NCCCC(=O)O

What was measured:
EGFR− HEK293 cells = assay: XTT cell viability / cytotoxicity, HEK293 cells; type: cell-based; conditions: 6 h pre-incubation, wash; for effect on EGFR− HEK-293 cells: further incubation, in words; for IC50: HEK293, XTT
Experimental: (§1) Cell proliferation in the presence of P6-SN38 was evaluated using a commercial XTT assay kit (Enhanced Cell Counting Kit 8 (WST-8/CCK8); Elabscience, Houston, TX, USA). A total of 10^4 cells per well were seeded in 96-well plates and incubated overnight in complete RPMI growth medium. After washing, the cells were cultured in 100 µL of fresh medium containing varying concentrations of free SN38 or PDC for 3 h and 6 h (pre-incubation). Following this, the cells were washed again and incubated for an additional 24, 48, and 72 h. The XTT reagent was then added to each well, and the plate was incubated for 2 h at 37 °C. For cytotoxicity analysis, absorbance was measured at 450 nm and 630 nm using a TECAN Infinite M200 ELISA reader (Citrine Solutions, Oranit, Israel). All assays were performed in triplicate, and each experiment was repeated three times.
(§2) Figure 2 Cell viability after 6 h of pre-incubation of EGFR+ H1299 (A) and EGFR− HEK293 (B) cell lines with P6-SN38 and SN38. H1299 and HEK293 cells were cultured in a 96-well plate and pre-incubated with six different concentrations (0.5, 2.5, 5, 10, 15, and 25 μM) of P6-SN38 or SN38 for 6 h, washed out, and incubated additionally for 24 h, 48 h, and 72 h. Cell viability was assessed using an XTT assay, with the viability of untreated control cells set at 100%. The viability of treated cells was expressed as a percentage relative to the control. Data are presented as the mean ± standard deviation (SD).

H1299 cells [1] = assay: Cell cycle analysis, PI flow cytometry; type: cell-based; conditions: 2.5 µM, 6 h pre-treatment, in words
Experimental: Cell cycle analysis was conducted using a cell cycle detection kit (Biotopped, Huangshan, China). H1299 cells were seeded in 5 × 10^4 cells/mL concentration in the complete growth medium. (RPMI 1640) Incubation was performed in 6-well plates at 37 °C under 5% CO2. The next day, the medium was removed, and the fresh medium containing P6-SN38 or free SN38 (2.5 µM) was added and incubated for 6 h. Then, the medium was removed by washing, a fresh medium was added, and the cells were incubated for an additional 24 and 48 h. Then, the cells were trypsinized and washed with PBS twice at 1500 rpm for 5 min. Cells were fixed in 66% ethanol for 2 h. Then, cells were incubated with 0.2 mL buffer solution containing PI (25 μL) and RNase A (10 μL) after being rinsed with cold PBS (according to the manufacturer’s protocol). Finally, the cell cycle was analyzed by Beckman CytoFLEX FCM (Bio-Rad Laboratories, Inc., Rishon Le Zion, Israel).
To investigate whether the observed growth inhibition and apoptosis were mediated by cell cycle arrest, we examined the effects of P6-SN38 and free SN38 on cell cycle progression in NSCLC H1299 cells. The cells were pre-treated with the compounds for 6 h, followed by an additional 24 or 48 h incubation period (Figure 4A,B).
Figure 4 Cell cycle arrest analysis of treatment with SN38 and P6-SN38. Cell cycle distribution of H1299 cells detected by flow cytometry after 24 h (A) and 48 h (B) treatment with SN38 and P6-SN38 at 2.5 µM. A total of 1 × 10^6 cells were pre-incubated with P6-SN38 or SN38 for 6 h, followed by additional incubation for 24 h and 48 h. The cells were then stained with propidium iodide (PI) and analyzed by flow cytometry (C). The data in A and B are presented as the mean ± SD (n = 3). “ns” means non-significant. * p < 0.05, *** p < 0.001, **** p < 0.0005. “ns” means non-significant. TEXT PRINTED IN THE PICTURE: (C) 01-H1299_P6_24h-B9.fcs: %G1 : 6.76; %S : 52.1; %G2 : 40.6 | (C) 01-H1299_P6_48h-D8.fcs: %G1 : 9.76; %S : 47.2; %G2 : 40.6 | (C) 01-H1299_SN_24h-A9.fcs: %G1 : 0; %S : 39.4; %G2 : 54.0 | (C) 01-H1299_SN_48h-C8.fcs: %G1 : 9.66; %S : 61.4; %G2 : 27.8 DOUBTS OF THE COPYIST ABOUT THIS PICTURE: 01-H1299_P6_24h-B9.fcs, %G1: small print, 6.76 could be 8.76 or 6.78 / 01-H1299_P6_24h-B9.fcs, %G2: small print, 40.6 could be 40.8 / 01-H1299_P6_48h-D8.fcs, %G1: small print, 9.76 could be 9.78 / 01-H1299_P6_48h-D8.fcs, %G2: small print, 40.6 could be 40.8 / 01-H1299_SN_24h-A9.fcs, %S: small print, 39.4 could be 38.4 / 01-H1299_SN_48h-C8.fcs, %G1: small print, 9.66 could be 9.68 or 9.86 / 01-H1299_SN_48h-C8.fcs, %G2: small print, 27.8 could be 27.6 / The untreated samples (01-H1299_24h_UT-A6.fcs, 01-H1299_UT_48h-C6.fcs) were left out because they stand for no substance. The RMSD values were left out as fit statistics.

[2] = Mice body weight during efficacy study; type: in vivo, NOD/SCID (nude) mice; conditions: i.v. once a week, 3 times; P6-SN38 10 mg/kg, Erbitux 10 mg/kg, free SN38 3 mg/kg; 18 days; N = 4
Experimental: (§3) When tumors reached~50 mm^3, mice were injected via tail vein (i.v.).
(§4) The mice’s weight and tumor volumes were measured every 2 days. The tumor sizes were measured by using the hands-on digital caliper method, and the tumor volumes were calculated according to the Formula (1). Tumor volume (mm^3) = 0.5 × Tumor Length × Tumor Width^2(1)
(§5) The resected tumors are shown in (C). N = 4 in each group. * p < 0.05, ** p < 0.005, *** p < 0.001, **** p < 0.0001.

EGFR+ H1299 cells = assay: XTT cell viability / cytotoxicity, H1299 cells; type: cell-based; conditions: 6 h pre-incubation, wash
Experimental: as §1, §2

H1299 cells [3] = assay: Apoptosis assay, Annexin V-FITC/PI flow cytometry; type: cell-based; conditions: 2.5 µM, 6 h pre-treatment, wash, mean ± SD; for apoptotic rate / late-stage apoptosis rate: 24 h; for apoptosis / late apoptosis rate: 48 h
Experimental: H1299 cells were seeded at the concentration of 5 × 10^4 cells/mL in the RPMI 1640 growth medium and incubated in 6-well plates at 37 °C under 5% CO2. The next day, the medium was removed, and P6-SN38, or free SN38 (2.5 µM), in fresh medium was added and incubated for 6 h. Then, the medium was removed by washing out, fresh medium was added, and the plates were incubated for an additional 24 and 48 h. The cells were collected with 0.25% trypsin/EDTA solution and washed with PBS twice at 1500 rpm for 5 min. After that, Annexin-FITC (5 µM) and propidium Iodide (PI, 5 µM) were added (both from Abcam, Cambridge, UK). The cells were incubated for 15 min in the dark, and the samples (2 × 10^4 cells) were analyzed by flow cytometry.
SN38, a potent topoisomerase I inhibitor, disrupts DNA replication, leading to cell cycle arrest and apoptosis. To evaluate and compare the effects of peptide-bound SN38 (P6-SN38) and free SN38 on DNA damage and cell cycle distribution (Section 3.4), H1299 cells were pre-treated with both compounds at a concentration of 2.5 µM for 6 h, followed by washing and continued incubation for 24 or 48 h (Figure 3).
Figure 3 Apoptosis of H1299 cells estimated through cell survival percentage by binding with annexin V-FITC. H1299 cells were pre-incubated with P6-SN38 and SN38 as described in Section 2.6. Cells were stained with annexin and PI and analyzed by flow cytometry; * p < 0.05, *** p < 0.001, **** p < 0.0005. “ns” means non-significant.

K562 (EGFR−) tumor = assay: In vivo tumor growth inhibition, K562 (EGFR−) xenograft; parameters: species or system NOD/SCID (nude) mice; conditions: 10 mg/kg i.v. once a week, 3 times
Experimental: (§6) Animal protocols were approved by the Institutional Animal Care and Use Committee at Ariel University. NOD/SCID (nude) mice were injected with H1299 in the right flank and K562 cells in the left flank (10^6 cells each), so that each mouse developed dual H1299 and K562 xenografts.
as §3, §4
Figure 6 In vivo effect of P6-SN38 conjugate in NSCLC model (10 mg/kg, once a week). […] The resected tumors are shown in (C). N = 4 in each group. * p < 0.05, ** p < 0.005, *** p < 0.001, **** p < 0.0001.

H1299 (EGFR+) tumor = assay: In vivo tumor growth inhibition, H1299 (EGFR+) xenograft; parameters: species or system NOD/SCID (nude) mice; conditions: 3 times, N = 4
Experimental: as §6, §3, §4, §5

| Structure (SMILES) | effect on EGFR− HEK-293 cells (EGFR− HEK293 cells) | IC50 (EGFR− HEK293 cells; 48 h incubation) | IC50 (EGFR− HEK293 cells; 72 h incubation) | cell cycle phase of arrest (H1299 cells [1]; 24 h) | cell cycle phase of arrest (H1299 cells [1]; 48 h) | mice weight loss, in words [2] | IC50 (EGFR+ H1299 cells; 48 h incubation) | IC50 (EGFR+ H1299 cells; 72 h incubation) | apoptotic rate (H1299 cells [3]) | late-stage apoptosis rate (H1299 cells [3]) | apoptosis (H1299 cells [3]) | late apoptosis rate (H1299 cells [3]) | effect on growth of K562 (EGFR−) tumors, in words (K562 (EGFR−) tumor; 18 days) | K562 tumor volume (K562 (EGFR−) tumor; day 18, initial ~50 mm^3, control 1772 ± 265, N = 4) | H1299 tumor eradication (H1299 (EGFR+) tumor; 10 mg/kg i.v. once a week, day 18) | effect on tumor growth, in words (H1299 (EGFR+) tumor; i.v. once a week, Erbitux 10 mg/kg, free SN38 3 mg/kg, 18 days) |
| --- | --- | --- | --- | --- | --- | --- | --- | --- | --- | --- | --- | --- | --- | --- | --- | --- |
| CCc1c2c(nc3ccc(O)cc13)-c1cc3c(c(=O)n1C2)COC(=O)[C@@]3(CC)OC(=O)CCC(=O)NCCCC(=O)N[C@H]1CSSC[C@@H](C(N)=O)NC(=O)[C@H]([C@@H](C)CC)NC(=O)[C@H](Cc2ccc(O)cc2)NC(=O)[C@H](CO)NC(=O)CNC(=O)[C@@H]2CCCN2C(=O)[C@H](C(C)C)NC(=O)[C@H](Cc2c[nH]cn2)NC1=O [P6-SN38] ({X1-GABA}-CHVPGSYIC-NH2; disulfide 1-9) | nearly no effect | > 50 µM | > 50 µM | both the S and G2/M phases | S/G2 phase arrest | minimal weight loss | 2.5 µM | 0.9 µM | 12.9 ± 4.2% | 14.1 ± 7.3% | 21.48 ± 9.90% | 25.32 ± 10.00% | did not affect the growth | 1522 ± 561 mm^3 | eradicated completely in 3 out of 4 mice |  |
| CCc1c2c(nc3ccc(O)cc13)-c1cc3c(c(=O)n1C2)COC(=O)[C@]3(O)CC [SN38] | active in both cell lines | 4.4 µM | 2.7 µM | G2/M phase arrest | S/G2 phase arrest | significant weight loss | 0.8 µM | 0.5 µM | 16.3 ± 6.4% | 15.2 ± 6.8% | 19.27 ± 5.11% | 26.80 ± 14.90% |  |  |  | non-specific tumor reduction |
